The values below come from patent publication US11634417B2 (Array BioPharma Inc., priority 2019, dated 2023).

Experiment [1] concerns ERK1/2 (Thr202/Tyr204) phosphorylation in KYSE520 cells. Put plainly: Cellular Phospho-p44/42 MAPK (Erk1/2) (Thr202/Tyr204) assay, In-Cell Western. The class given is cell-based. Conditions: Homo sapiens, KYSE-520; KYSE520 cells, 1 hour incubation, pERK signal normalized to GAPDH; single assay or mean of multiple assays; read-out: Biological Example 2 IC50. Put shortly:
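KYSE520 cells were treated 1 h with a 10-point 1:3 series (20 μM-1 nM, 0.5% DMSO), then fixed and stained for pERK1/2 (Thr202/Tyr204) and GAPDH by In-Cell Western. pERK signal was normalized to GAPDH per well; IC50 from 4-parameter fit.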

For experiment [2], the target named is T1, full-length SHP2 (Homo sapiens, UniProt Q06124).
T1 construct: 1 nM full-length SHP2 (His6-tagged SHP2(2-527), recombinantly expressed in E. coli and purified in-house); His6; made in house; host or cells: E. coli
T1 sequence (Q06124 2-527): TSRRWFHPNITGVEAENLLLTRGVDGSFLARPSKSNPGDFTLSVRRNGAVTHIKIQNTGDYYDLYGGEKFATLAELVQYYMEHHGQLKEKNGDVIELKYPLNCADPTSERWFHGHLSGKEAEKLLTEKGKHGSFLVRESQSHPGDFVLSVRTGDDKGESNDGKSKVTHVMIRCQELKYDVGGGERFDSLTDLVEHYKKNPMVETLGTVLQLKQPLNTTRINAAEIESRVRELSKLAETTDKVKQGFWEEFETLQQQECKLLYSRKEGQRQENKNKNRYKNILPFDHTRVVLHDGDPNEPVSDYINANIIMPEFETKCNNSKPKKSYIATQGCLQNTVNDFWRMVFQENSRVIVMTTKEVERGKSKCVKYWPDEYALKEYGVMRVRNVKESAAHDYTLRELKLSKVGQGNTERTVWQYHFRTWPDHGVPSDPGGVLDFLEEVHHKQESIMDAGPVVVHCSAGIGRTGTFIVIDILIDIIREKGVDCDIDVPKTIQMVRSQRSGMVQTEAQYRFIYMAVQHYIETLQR
Put plainly: SHP2 enzymatic assay (fluorescence intensity kinetic assay, DiFMUP hydrolysis). The class given is biochemical. Conditions: 1 nM His6-tagged SHP2(2-527), 1 μM activating peptide, 50 μM DiFMUP; single assay or mean of multiple assays; read-out: Biological Example 1 IC50.

In general, IC50 refers to the point on the concentration scale where inhibition reaches its midpoint. For `CNc1nccc(Sc2cnc(N3CCC4(CC3)Cc3ccccc3[C@H]4N)nn2)c1Cl` [Example 53, (S)-1′-(6-((3-chloro-2-(methylamino)pyridin-4-yl)thio)-1,2,4-triazin-3-yl)-1,3-dihydrospiro[indene-2,4′-piperidin]-1-amine], the IC50 worked out at 4 nM in experiment [1] and 46 nM in experiment [2].
`Cc1nccc(Sc2cnc(N3CCC4(CC3)Cc3ccccc3[C@H]4N)nn2)c1Cl` [Example 54, (S)-1′-(6-((3-chloro-2-methylpyridin-4-yl)thio)-1,2,4-triazin-3-yl)-1,3-dihydrospiro[indene-2,4′-piperidin]-1-amine]: the results for the IC50 in experiment [1] and in experiment [2] were 7 nM and 62 nM, respectively.
On the same counts, the results for `COc1nccc(Sc2cnc(N3CCC4(CC3)Cc3ccccc3[C@H]4N)nn2)c1Cl` [Example 55, (S)-1′-(6-((3-chloro-2-methoxypyridin-4-yl)thio)-1,2,4-triazin-3-yl)-1,3-dihydrospiro[indene-2,4′-piperidin]-1-amine] are 23 nM and 116 nM.
As to `Cc1nc2c(s1)[C@H](N)C1(CCN(c3ncc(Sc4ccnc(N)c4Cl)nn3)CC1)C2` [Example 57, (R)-1′-(6-((2-amino-3-chloropyridin-4-yl)thio)-1,2,4-triazin-3-yl)-2-methyl-4,6-dihydrospiro[cyclopenta[d]thiazole-5,4′-piperidin]-6-amine], the IC50 in experiment [1] turned out to be 139 nM; in experiment [2] it was 643 nM.
On the same counts, the results for `Nc1nccc(Sc2cnc(N3CCC4(CC3)Cc3ncsc3[C@H]4N)nn2)c1Cl` [Example 58, (S)-1′-(6-((2-amino-3-chloropyridin-4-yl)thio)-1,2,4-triazin-3-yl)-4,6-dihydrospiro[cyclopenta[d]thiazole-5,4′-piperidin]-6-amine] are 1 nM and 39 nM.
`Cc1ccc2c(c1)CC1(CCN(c3ncc(Sc4ccnc(N)c4Cl)nn3)CC1)[C@H]2N` [Example 59, (R)-1′-(6-((2-amino-3-chloropyridin-4-yl)thio)-1,2,4-triazin-3-yl)-5-methyl-1,3-dihydrospiro[indene-2,4′-piperidin]-1-amine]: the IC50 in experiment [1] was 170 nM; in experiment [2] it was 118 nM.
Turning to `Cc1ccc2c(n1)CC1(CCN(c3ncc(Sc4ccnc(N)c4Cl)nn3)CC1)[C@H]2N` [Example 60], the IC50 came to 528 nM in experiment [1] and 109 nM in experiment [2].
With `Cc1nc2c(s1)[C@@H](N)C1(CCN(c3ncc(Sc4ccnc(N)c4Cl)nn3)CC1)C2` [Example 61, (S)-1′-(6-((2-amino-3-chloropyridin-4-yl)thio)-1,2,4-triazin-3-yl)-2-methyl-4,6-dihydrospiro[cyclopenta[d]thiazole-5,4′-piperidin]-6-amine], the results for the 50% inhibitory concentration (IC50) in experiment [1] and in experiment [2] were 6 nM and 87 nM, respectively.
On the same counts, the results for `Cc1ccc2c(n1)CC1(CCN(c3ncc(Sc4ccnc(N)c4Cl)nn3)CC1)[C@@H]2N` [Example 62] are 6 nM and 39 nM.
For `COc1cc2c(cc1Cl)[C@H](N)C1(CCN(c3ncc(Sc4ccnc(N)c4Cl)nn3)CC1)C2` [Example 63, (R)-1′-(6-((2-amino-3-chloropyridin-4-yl)thio)-1,2,4-triazin-3-yl)-6-chloro-5-methoxy-1,3-dihydrospiro[indene-2,4′-piperidin]-1-amine] the same measures were 665 nM and 254 nM.
On the same counts, the results for `Nc1nccc(Sc2cnc(N3CCC4(CC3)Cc3ccc(Cl)cc3[C@H]4N)nn2)c1Cl` [Example 64, (S)-1′-(6-((2-amino-3-chloropyridin-4-yl)thio)-1,2,4-triazin-3-yl)-6-chloro-1,3-dihydrospiro[indene-2,4′-piperidin]-1-amine] are 286 nM and 41 nM.
On to `Nc1nccc(Sc2cnc(N3CCC4(CC3)Cc3ncc(Cl)cc3[C@H]4N)nn2)c1Cl` [Example 65, (S)-1′-(6-((2-amino-3-chloropyridin-4-yl)thio)-1,2,4-triazin-3-yl)-3-chloro-5,7-dihydrospiro[cyclopenta[b]pyridine-6,4′-piperidin]-5-amine], for which the IC50 is 81 nM in experiment [1] and 64 nM in experiment [2].
On the same counts, the results for `N[C@@H]1c2ccccc2CC12CCN(c1ncc(Sc3n[nH]c4ccccc34)nn1)CC2` [Example 67, (S)-1′-(6-((1H-indazol-3-yl)thio)-1,2,4-triazin-3-yl)-1,3-dihydrospiro[indene-2,4′-piperidin]-1-amine] are 51 nM and 20 nM.
For `N[C@@H]1c2ccccc2CC12CCN(c1ncc(Sc3c[nH]c4ccccc34)nn1)CC2` [Example 69, (S)-1′-(6-((1H-indol-3-yl)thio)-1,2,4-triazin-3-yl)-1,3-dihydrospiro[indene-2,4′-piperidin]-1-amine] the same measures were 170 nM and 19 nM.
For `N[C@@H]1c2ccccc2CC12CCN(c1ncc(Sc3ccnc4c3CCN4)nn1)CC2` [Example 70, (S)-1′-(6-((2,3-dihydro-1H-pyrrolo[2,3-b]pyridin-4-yl)thio)-1,2,4-triazin-3-yl)-1,3-dihydrospiro[indene-2,4′-piperidin]-1-amine] the same measures were 9 nM and 36 nM.
In the case of `N[C@@H]1c2ccccc2CC12CCN(c1ncc(Sc3cnc4ccccn34)nn1)CC2` [Example 71, (S)-1′-(6-(imidazo[1,2-a]pyridin-3-ylthio)-1,2,4-triazin-3-yl)-1,3-dihydrospiro[indene-2,4′-piperidin]-1-amine], the results for the 50% inhibitory concentration (IC50) in experiment [1] and in experiment [2] were 152 nM and 55 nM, respectively.
On the same counts, the results for `Cn1ccc2c(Sc3cnc(N4CCC5(CC4)Cc4ccccc4[C@H]5N)nn3)ccnc21` [Example 73, (S)-1′-(6-((1-methyl-1H-pyrrolo[2,3-b]pyridin-4-yl)thio)-1,2,4-triazin-3-yl)-1,3-dihydrospiro[indene-2,4′-piperidin]-1-amine] are 6 nM and 32 nM.
On the same counts, the results for `Nc1nccc(Sc2cnc(N3CCC4(CC3)Cc3nc(Cl)sc3C4N)nn2)c1Cl` (centres unmarked) [Example 76, 1′-(6-((2-amino-3-chloropyridin-4-yl)thio)-1,2,4-triazin-3-yl)-2-chloro-4,6-dihydrospiro[cyclopenta[d]thiazole-5,4′-piperidin]-6-amine] are 4 nM and 41 nM.
On the same counts, the results for `Nc1nccc(Sc2cnc(N3CCC4(CC3)Oc3ncccc3[C@H]4N)nn2)c1Cl` [Example 77] are 92 nM and 74 nM.
As for `N[C@@H]1c2ccccc2CC12CCN(c1ncc(-c3ccccc3)nn1)CC2` [Example 79, (S)-1′-(6-phenyl-1,2,4-triazin-3-yl)-1,3-dihydrospiro[indene-2,4′-piperidin]-1-amine], the IC50 worked out at 697 nM in experiment [1] and 84 nM in experiment [2].
For `N[C@@H]1c2ccccc2CC12CCN(c1ncc(-c3cccc(Cl)c3)nn1)CC2` [Example 80, (S)-1′-(6-(3-chlorophenyl)-1,2,4-triazin-3-yl)-1,3-dihydrospiro[indene-2,4′-piperidin]-1-amine] the same measures were 2990 nM and 429 nM.
As to `N[C@@H]1c2ccccc2CC12CCN(c1ncc(Oc3ccccc3)nn1)CC2` [Example 81, (S)-1′-(6-phenoxy-1,2,4-triazin-3-yl)-1,3-dihydrospiro[indene-2,4′-piperidin]-1-amine], the results for the IC50 in experiment [1] and in experiment [2] were 8 nM and 4 nM, respectively.
